Data taken from patent EP4755889A1, “COMPOUND FOR DETECTING AMYLOID-BETA OLIGOMER AND METHOD FOR DIAGNOSING DEGENERATIVE BRAIN DISEASE USING SAME” (Amyloid Solution Inc., priority 2024, dated 2025).

Target: T1, fibrinogen (Homo sapiens, UniProt P02671+P02675+P02679)
T1 construct: purchased Sigma-Aldrich
T1 sequence (P02671 20-629 limits assumed): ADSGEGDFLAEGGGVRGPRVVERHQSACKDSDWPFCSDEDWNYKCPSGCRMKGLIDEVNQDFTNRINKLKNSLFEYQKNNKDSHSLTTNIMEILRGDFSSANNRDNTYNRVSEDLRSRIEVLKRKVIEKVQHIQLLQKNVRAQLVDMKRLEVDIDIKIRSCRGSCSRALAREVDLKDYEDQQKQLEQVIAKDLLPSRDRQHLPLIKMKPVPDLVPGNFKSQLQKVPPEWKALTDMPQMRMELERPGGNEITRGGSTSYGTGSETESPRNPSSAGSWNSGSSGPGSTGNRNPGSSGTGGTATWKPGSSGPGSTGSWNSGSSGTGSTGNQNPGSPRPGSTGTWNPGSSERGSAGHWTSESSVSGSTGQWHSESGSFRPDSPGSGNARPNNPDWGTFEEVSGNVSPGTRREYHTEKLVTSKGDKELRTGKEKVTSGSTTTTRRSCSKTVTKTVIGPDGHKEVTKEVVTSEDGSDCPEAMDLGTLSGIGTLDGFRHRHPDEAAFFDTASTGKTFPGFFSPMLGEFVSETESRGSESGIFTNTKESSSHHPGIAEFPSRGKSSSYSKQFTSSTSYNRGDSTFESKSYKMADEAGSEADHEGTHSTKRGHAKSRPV
T1 sequence (P02675 31-491): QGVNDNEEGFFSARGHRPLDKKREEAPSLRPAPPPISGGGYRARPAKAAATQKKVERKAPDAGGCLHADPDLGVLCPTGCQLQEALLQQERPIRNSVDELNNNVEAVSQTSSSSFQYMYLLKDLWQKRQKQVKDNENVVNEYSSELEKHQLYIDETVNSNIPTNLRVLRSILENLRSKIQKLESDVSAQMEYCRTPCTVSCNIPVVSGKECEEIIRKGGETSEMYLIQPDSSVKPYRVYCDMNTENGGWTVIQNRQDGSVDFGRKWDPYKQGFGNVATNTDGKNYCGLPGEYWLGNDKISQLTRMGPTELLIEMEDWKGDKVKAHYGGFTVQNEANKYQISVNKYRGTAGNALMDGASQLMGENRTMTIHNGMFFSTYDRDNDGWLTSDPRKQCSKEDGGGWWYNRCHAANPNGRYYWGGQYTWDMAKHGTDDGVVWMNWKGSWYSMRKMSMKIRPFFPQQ
T1 sequence (P02679 27-453): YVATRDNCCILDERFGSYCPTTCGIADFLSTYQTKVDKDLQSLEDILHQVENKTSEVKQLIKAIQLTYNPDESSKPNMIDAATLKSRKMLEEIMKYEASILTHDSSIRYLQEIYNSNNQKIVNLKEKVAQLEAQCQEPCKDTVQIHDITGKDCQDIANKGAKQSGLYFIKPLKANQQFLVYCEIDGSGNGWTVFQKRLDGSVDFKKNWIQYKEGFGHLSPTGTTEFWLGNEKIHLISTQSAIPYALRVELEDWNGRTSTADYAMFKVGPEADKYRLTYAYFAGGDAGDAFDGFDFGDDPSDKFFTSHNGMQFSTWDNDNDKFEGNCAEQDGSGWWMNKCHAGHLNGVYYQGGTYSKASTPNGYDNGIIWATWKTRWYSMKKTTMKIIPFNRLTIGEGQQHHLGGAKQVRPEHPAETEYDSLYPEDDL
Assay: Selectivity for blood proteins: fibrinogen
Type: binding
Details: IK15j (25 µM)
Procedure: Aβ1-42 peptide was aggregated at 37 °C for 8 hours, and 25 µM of Aβ1-42 oligomers, albumin (Sigma-Aldrich, USA), and fibrinogen (Sigma-Aldrich, USA) were seeded into a black microplate. Each sample was treated with IK15j (100 µM) for 8 hours at room temperature. The signal of each sample was detected using a microplate reader (λex = 285 nm / λem = 475 nm).
Excluding water, the solid components of plasma consist of coagulation factors and plasma proteins. Albumin is the most abundant protein in plasma, and fibrinogen is a major coagulation factor in plasma. Considering the possibility that fibrinogen or albumin might interact with AD diagnostic tools and interfere with compound selectivity, IK15j (25 µM) was incubated with Aβ1-42, albumin, or fibrinogen as described in Reference Example 10, and the fluorescence signal of each sample was measured to evaluate the selectivity of the compound of the present disclosure against these proteins.

Structure (SMILES): Cc1ccc2c(c1)c(-c1ccccc1)cn1c(C)cc(C#N)c21 [IK15j, 3,8-dimethyl-6-phenylpyrrolo[2,1-a]isoquinoline-1-carbonitrile]
- interaction with fibrinogen: did not interact
